Test results published in the supplement of paper PMC11579375.

What was measured:
Experiment in all cases: area under the viability dose-response curve (AUC) (AUC (arbitrary units, max 500 = no viability loss)); higher = less sensitive (higher viability)
Settings in all cases: exposure time: 120 h; concentration range: 0.1 nM - 10 µM, 6 doses
8F1 = test system: 8F1 (fetal-I hepatoblastoma organoid with intermediate liver markers)
Method: (§1)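 Patient-derived hepatoblastoma tumor organoids (about 50 organoids per well, 384-well plates, medium with 5% BME) were treated with the PMC pediatric cancer drug library. Each drug was tested in duplicate at 6 concentrations (0.1 nM to 10 µM, 10-fold steps).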

96F1 = test system: 96F1 (fetal-I hepatoblastoma organoid with intermediate liver markers)
Method: as §1

27F1 = test system: 27F1 (fetal-I hepatoblastoma organoid with intermediate liver markers)
Method: as §1

17F1 = test system: 17F1 (fetal-I hepatoblastoma organoid with intermediate liver markers)
Method: as §1

3E = test system: 3E (embryonal-type hepatoblastoma organoid)
Method: as §1

13E = test system: 13E (embryonal-type hepatoblastoma organoid)
Method: as §1

135F2 = test system: 135F2 (fetal-II hepatoblastoma organoid with high liver markers)
Method: as §1

13F2 = test system: 13F2 (fetal-II hepatoblastoma organoid with high liver markers)
Method: as §1

17E = test system: 17E (embryonal-type hepatoblastoma organoid)
Method: as §1

10F2 = test system: 10F2 (fetal-II hepatoblastoma organoid with high liver markers)
Method: as §1

22E = test system: 22E (embryonal-type hepatoblastoma organoid)
Method: as §1

Row | SMILES | area under the viability dose-response curve (8F1) | area under the viability dose-response curve (96F1) | area under the viability dose-response curve (27F1) | area under the viability dose-response curve (17F1) | area under the viability dose-response curve (3E) | area under the viability dose-response curve (13E) | area under the viability dose-response curve (135F2) | area under the viability dose-response curve (13F2) | area under the viability dose-response curve (17E) | area under the viability dose-response curve (10F2) | area under the viability dose-response curve (22E)
1 | Cc1sc2c(c1C)C(c1ccc(Cl)cc1)=N[C@@H](CC(=O)Nc1ccc(O)cc1)c1nnc(C)n1-2 [Birabresib] | 473 | 478 | 482 | 461 | 358 | 410 | 354 | 318 | 395 | 390 | 399
2 | CS(=O)(=O)OCCCCOS(C)(=O)=O [Busulfan] | – | 485 | – | > 500 | – | 489 | > 500 | > 500 | > 500 | > 500 | 490
3 | COc1cccc2c1C(=O)c1c(O)c3c(c(O)c1C2=O)C[C@@](O)(C(C)=O)C[C@@H]3O[C@H]1C[C@H](N)[C@H](O)[C@H](C)O1 [Daunorubicin] | 400 | 284 | 305 | 301 | 273 | 301 | 283 | 253 | 287 | 247 | 317
4 | C[C@@H](NC(=O)c1ncnc(N)c1Cl)c1ncc(C(=O)Nc2cc(C(F)(F)F)c(Cl)cn2)s1 [TAK-580] | > 500 | > 500 | > 500 | > 500 | > 500 | > 500 | 449 | 485 | > 500 | 433 | > 500
5 | CN[C@@H](C)C(=O)N[C@H](C(=O)N1CCC[C@H]1C(=O)N[C@H]1c2ccccc2C[C@H]1OCC#CC#CCO[C@@H]1Cc2ccccc2[C@@H]1NC(=O)[C@@H]1CCCN1C(=O)[C@@H](NC(=O)[C@H](C)NC)C1CCCCC1)C1CCCCC1 [AZD5582] | 414 | 458 | 394 | 446 | 148 | 424 | 483 | 470 | 473 | 321 | 82.8
6 | CC[C@]1(O)C[C@@H]2CN(CCc3c([nH]c4ccccc34)[C@@](C(=O)OC)(c3cc4c(cc3OC)N(C)[C@H]3[C@@](O)(C(=O)OC)[C@H](OC(C)=O)[C@]5(CC)C=CCN6CC[C@]43[C@@H]65)C2)C1 [Vinblastine] | 220 | 156 | 194 | 208 | 148 | 164 | 176 | 189 | 183 | 160 | 223
7 | CCCCCCCCCCCCCCCCCCOP(=O)([O-])OC1CC[N+](C)(C)CC1 [Perifosine] | 482 | – | > 500 | > 500 | > 500 | > 500 | – | 480 | 499 | 470 | > 500
8 | Cc1c2oc3c(C)ccc(C(=O)N[C@@H]4C(=O)N[C@H](C(C)C)C(=O)N5CCC[C@H]5C(=O)N(C)CC(=O)N(C)[C@@H](C(C)C)C(=O)O[C@@H]4C)c3nc-2c(C(=O)N[C@@H]2C(=O)N[C@H](C(C)C)C(=O)N3CCC[C@H]3C(=O)N(C)CC(=O)N(C)[C@@H](C(C)C)C(=O)O[C@@H]2C)c(N)c1=O [Actinomycin D] | 222 | 169 | – | 187 | 134 | 205 | 127 | 114 | 150 | 160 | 215
9 | CN(C)C(=N)NC(=N)N [Metformin] | – | > 500 | – | 482 | – | > 500 | > 500 | > 500 | > 500 | 469 | > 500
10 | CO[C@H]1C[C@@H]2CC[C@@H](C)[C@@](O)(O2)C(=O)C(=O)N2CCCC[C@H]2C(=O)O[C@H]([C@H](C)C[C@@H]2CC[C@@H](O)[C@H](OC)C2)CC(=O)[C@H](C)/C=C(\C)[C@@H](O)[C@@H](OC)C(=O)[C@H](C)C[C@H](C)/C=C/C=C/C=C/1C [Sirolimus] | 476 | > 500 | > 500 | > 500 | 249 | 389 | 464 | 319 | 257 | 391 | –
11 | COCCOc1cnc2ccn([C@H](C)c3nnc4c(F)cc(-c5cnn(C)c5)cn34)c(=O)c2c1 [AMG 337] | – | > 500 | – | 495 | – | 488 | 488 | 483 | 494 | 446 | > 500
12 | CNC(=O)c1ccccc1Sc1ccc2c(/C=C/c3ccccn3)n[nH]c2c1 [Axitinib] | 495 | 480 | 478 | 499 | 421 | 427 | 463 | 457 | 438 | 411 | –
13 | C/C=C1\NC(=O)[C@H]2CSSCC/C=C/[C@H](CC(=O)N[C@H](C(C)C)C(=O)N2)OC(=O)[C@H](C(C)C)NC1=O [Romidepsin] | 145 | 54.5 | 165 | 158 | 87.9 | 123 | 137 | 143 | 104 | 141 | –
14 | COCC1(CO)C(=O)C2CCN1CC2 (stereo not drawn) [APR-246] | 480 | 499 | 462 | 497 | > 500 | > 500 | 495 | 487 | 494 | > 500 | –
